Results: article PMC6687522 (Drug development research, 2019)

Target: T1, human neutrophil elastase (HNE) (Homo sapiens, UniProt P08246)
T1 sequence (P08246 30-267): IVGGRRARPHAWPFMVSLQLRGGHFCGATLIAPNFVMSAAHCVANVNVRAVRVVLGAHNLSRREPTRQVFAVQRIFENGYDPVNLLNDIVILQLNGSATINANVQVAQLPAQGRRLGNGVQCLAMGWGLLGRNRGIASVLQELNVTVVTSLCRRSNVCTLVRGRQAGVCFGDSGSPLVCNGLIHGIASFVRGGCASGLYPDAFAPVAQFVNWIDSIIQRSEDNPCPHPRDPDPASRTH
Test: HNE inhibition assay
Format: biochemical
Settings: not given

Row | IC50 [nM] | SMILES
1 | 3500 ± 1200 | Cc1cccc(C(=O)n2c(C#N)cc3cccnc32)c1 [Compound 2d, 1-(3-Methylbenzoyl)-1H-pyrrolo[2,3-b]pyridine-2-carbonitrile]
2 | 10800 ± 2200 | Cc1cccc(C(=O)n2c(C)c(C#N)c3cccnc32)c1 [Compound 2e, 2-Methyl-1-(3-methylbenzoyl)-1H-pyrrolo[2,3-b]pyridine-3-carbonitrile]
3 | 51 ± 14 | Cc1cccc(C(=O)n2cc(C#N)c3cc(Br)cnc32)c1 [Compound 7a, 5-Bromo-1-(3-methylbenzoyl)-1H-pyrrolo[2,3-b]pyridine-3-carbonitrile]
4 | 160 ± 50 | Cc1cccc(C(=O)n2cc(C#N)c3cc(Cl)cnc32)c1 [Compound 7b, 5-Chloro-1-(3-methylbenzoyl)-1H-pyrrolo[2,3-b]pyridine-3-carbonitrile]
5 | 400 ± 110 | Cc1cccc(C(=O)n2cc(C#N)c3cc([N+](=O)[O-])cnc32)c1 [Compound 7c, 1-(3-Methylbenzoyl)-5-nitro-1H-pyrrolo[2,3-b]pyridine-3-carbonitrile]
6 | 50 ± 20 | Cc1cccc(C(=O)n2cc(C#N)c3cc(-c4ccccc4)cnc32)c1 [Compound 14a, 1-(3-Methylbenzoyl)-5-phenyl-1H-pyrrolo[2,3-b]pyridine-3-carbonitrile]
7 | 180 ± 70 | Cc1cccc(C(=O)n2cc(C#N)c3cc(-c4cccc(C(F)(F)F)c4)cnc32)c1 [Compound 14b, 1-(3-Methylbenzoyl)-5-(3-(trifluoromethyl)phenyl)-1H-pyrrolo[2,3-b]pyridine-3-carbonitrile]
8 | 130 ± 40 | Cc1cccc(C(=O)n2cc(C#N)c3cc(-c4cccc(C)c4)cnc32)c1 [Compound 14c, 1-(3-Methylbenzoyl)-5-(m-tolyl)-1H-pyrrolo[2,3-b]pyridine-3-carbonitrile]
9 | 70 ± 15 | COc1cccc(-c2cnc3c(c2)c(C#N)cn3C(=O)c2cccc(C)c2)c1 [Compound 14d, 5-(3-Methoxyphenyl)-1-(3-methylbenzoyl)-1H-pyrrolo[2,3-b]pyridine-3-carbonitrile]
10 | 1600 ± 330 | COc1ccc2cc(-c3cnc4c(c3)c(C#N)cn4C(=O)c3cccc(C)c3)ccc2c1 [Compound 14e, 5-(6-Methoxynaphthalen-2-yl)-1-(3-methylbenzoyl)-1H-pyrrolo[2,3-b]pyridine-3-carbonitrile]
11 | 42 ± 15 | Cc1cccc(C(=O)n2cc(C#N)c3cc(-c4ccsc4)cnc32)c1 [Compound 14f, 1-(3-methylbenzoyl)-5-(thiophen-3-yl)-1H-pyrrolo[2,3-b]pyridine-3-carbonitrile]
12 | 15 ± 4 | Cc1cccc(C(=O)n2cc(C#N)c3cc(-c4cccnc4)cnc32)c1 [Compound 14g, 1-(3-methylbenzoyl)-5-(pyridin-3-yl)-1H-pyrrolo[2,3-b]pyridine-3-carbonitrile]

Same assay, conditions: ratio of HNE IC50 values

Row | fold more potent than the 5-chloro derivative 7b | fold less potent than the 5-chloro derivative 7b | SMILES
13 | about 3 fold | – | Cc1cccc(C(=O)n2cc(C#N)c3cc(Br)cnc32)c1 [Compound 7a, 5-Bromo-1-(3-methylbenzoyl)-1H-pyrrolo[2,3-b]pyridine-3-carbonitrile]
14 | – | about 2 fold | Cc1cccc(C(=O)n2cc(C#N)c3cc([N+](=O)[O-])cnc32)c1 [Compound 7c, 1-(3-Methylbenzoyl)-5-nitro-1H-pyrrolo[2,3-b]pyridine-3-carbonitrile]
